Assay results as given in patent US10721934B2, “Enhanced preservative” (Arch Chemicals, Inc., priority 2013, dated 2020).

How the values were obtained:
Type in all cases: cell-based
[1] = tested on: Pseudomonas aeruginosa ATCC 15442; experiment: Minimum Inhibitory Concentration (MIC) test, 96 well microtiter plate; conditions: single chemical
Protocol: Microorganisms: Pseudomonas aeruginosa ATCC 15442
(§1) MIC set up: A 96 well microtiter plate Minimum Inhibitory Concentration (MIC) test was run in broth suitable for the test organism. Serially diluted actives were prepared in sterilized water, and the start-up concentration varied depending on the efficacy range. Inocula prepared in 2× suitable broth was added into each well, and the final concentrations of bacteria were adjusted to approximately 5×10^5.

[2] = tested on: Aspergillus brasiliensis; experiment: MIC test, 96 well microtiter plate; conditions: single chemical
Protocol: as §1
(§2) Further MIC tests were conducted using different amine compounds in combination with a pyrithione and two different isothiazolinones. The procedures described in Example No. 1 were used.

[3] = tested on: Aureobasidium pullulans; experiment: MIC test, 96 well microtiter plate; conditions: single chemical
Protocol: as §1, §2

[4] = tested on: Candida albicans; experiment: MIC test, 96 well microtiter plate; conditions: single chemical
Protocol: as §1, §2

[5] = tested on: Escherichia coli; experiment: MIC test, 96 well microtiter plate; conditions: single chemical
Protocol: as §1, §2

[6] = tested on: Staphylococcus aureus; experiment: MIC test, 96 well microtiter plate; conditions: single chemical
Protocol: as §1, §2

[7] = tested on: mixed bacterial inoculum (Pseudomonas aeruginosa, Enterobacter cloacae, Escherichia coli, Acinetobacter calcoaceticus); experiment: Repeated inoculation of standard acrylic paint, streak plate rating
Procedure, shortened: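 Acrylic paint containing pyrithione, isothiazolinone and biocide enhancing agent, alone or mixed at varied concentrations, was challenged three times with an aqueous suspension of the four bacteria in equal proportions. Samples were streak plated 24, 48 and 72 h after inoculation and the plates rated for growth.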

Substance: Zinc Pyrithione [ZnPT]
- Minimum Inhibitory Concentration [1]: 62.5 ppm
- Minimum Inhibitory Concentration [2]: 15.6 ppm
- Minimum Inhibitory Concentration [3]: 3.9 ppm
- Minimum Inhibitory Concentration [4]: 7.8 ppm
- Minimum Inhibitory Concentration [5]: 3.9 ppm
- Minimum Inhibitory Concentration [6]: 7.8 ppm
- streak plate rating ([7]; Set Five, ZPT 50 ppm, 1st inoculation 24 h): 0
- streak plate rating ([7]; Set Five, ZPT 50 ppm, 1st inoculation 48 h): 0
- streak plate rating ([7]; Set Five, ZPT 50 ppm, 1st inoculation 72 h): 0
- streak plate rating ([7]; Set Five, ZPT 50 ppm, 2nd inoculation 24 h): 2 (6-15 viable microorganisms Lightly contaminated)
- streak plate rating ([7]; Set Five, ZPT 50 ppm, 2nd inoculation 48 h): 0
- streak plate rating ([7]; Set Five, ZPT 50 ppm, 2nd inoculation 72 h): 0
- streak plate rating ([7]; Set Five, ZPT 50 ppm, 3rd inoculation 24 h): 3 (16-30 viable microorganisms Moderately contaminated)
- streak plate rating ([7]; Set Five, ZPT 50 ppm, 3rd inoculation 48 h): 5 (>45 viable microorganisms Severely contaminated)
- streak plate rating ([7]; Set Five, ZPT 50 ppm, 3rd inoculation 72 h): 5 (>45 viable microorganisms Severely contaminated)
- streak plate rating ([7]; Set Four, ZPT 50 ppm, 1st inoculation 24 h): 0
- streak plate rating ([7]; Set Four, ZPT 50 ppm, 1st inoculation 48 h): 0
- streak plate rating ([7]; Set Four, ZPT 50 ppm, 1st inoculation 72 h): 0
- streak plate rating ([7]; Set Four, ZPT 50 ppm, 2nd inoculation 24 h): 2 (6-15 viable microorganisms Lightly contaminated)
- streak plate rating ([7]; Set Four, ZPT 50 ppm, 2nd inoculation 48 h): 0
- streak plate rating ([7]; Set Four, ZPT 50 ppm, 2nd inoculation 72 h): 0
- streak plate rating ([7]; Set Four, ZPT 50 ppm, 3rd inoculation 24 h): 3 (16-30 viable microorganisms Moderately contaminated)
- streak plate rating ([7]; Set Four, ZPT 50 ppm, 3rd inoculation 48 h): 5 (>45 viable microorganisms Severely contaminated)
- streak plate rating ([7]; Set Four, ZPT 50 ppm, 3rd inoculation 72 h): 5 (>45 viable microorganisms Severely contaminated)
- streak plate rating ([7]; Set One, ZPT 50 ppm, 1st inoculation 24 h): 3 (16-30 viable microorganisms Moderately contaminated)
- streak plate rating ([7]; Set One, ZPT 50 ppm, 1st inoculation 48 h): 3 (16-30 viable microorganisms Moderately contaminated)
- streak plate rating ([7]; Set One, ZPT 50 ppm, 2nd inoculation 24 h): 5 (>45 viable microorganisms Severely contaminated)
- streak plate rating ([7]; Set One, ZPT 50 ppm, 2nd inoculation 48 h): 5 (>45 viable microorganisms Severely contaminated)
- streak plate rating ([7]; Set One, ZPT 50 ppm, 2nd inoculation 72 h): 5 (>45 viable microorganisms Severely contaminated)
- streak plate rating ([7]; Set One, ZPT 50 ppm, 3rd inoculation 24 h): 5 (>45 viable microorganisms Severely contaminated)
- streak plate rating ([7]; Set One, ZPT 50 ppm, 3rd inoculation 48 h): 5 (>45 viable microorganisms Severely contaminated)
- streak plate rating ([7]; Set One, ZPT 50 ppm, 3rd inoculation 72 h): 5 (>45 viable microorganisms Severely contaminated)
- streak plate rating ([7]; Set Three, ZPT 50 ppm, 1st inoculation 24 h): 5 (>45 viable microorganisms Severely contaminated)
- streak plate rating ([7]; Set Three, ZPT 50 ppm, 1st inoculation 48 h): 3 (16-30 viable microorganisms Moderately contaminated)
- streak plate rating ([7]; Set Three, ZPT 50 ppm, 1st inoculation 72 h): 5 (>45 viable microorganisms Severely contaminated)
- streak plate rating ([7]; Set Three, ZPT 50 ppm, 2nd inoculation 24 h): 5 (>45 viable microorganisms Severely contaminated)
- streak plate rating ([7]; Set Three, ZPT 50 ppm, 2nd inoculation 48 h): 5 (>45 viable microorganisms Severely contaminated)
- streak plate rating ([7]; Set Three, ZPT 50 ppm, 2nd inoculation 72 h): 5 (>45 viable microorganisms Severely contaminated)
- streak plate rating ([7]; Set Three, ZPT 50 ppm, 3rd inoculation 24 h): 5 (>45 viable microorganisms Severely contaminated)
- streak plate rating ([7]; Set Three, ZPT 50 ppm, 3rd inoculation 48 h): 5 (>45 viable microorganisms Severely contaminated)
- streak plate rating ([7]; Set Three, ZPT 50 ppm, 3rd inoculation 72 h): 5 (>45 viable microorganisms Severely contaminated)
- streak plate rating ([7]; Set Two, ZPT 25 ppm, 1st inoculation 24 h): 5 (>45 viable microorganisms Severely contaminated)
- streak plate rating ([7]; Set Two, ZPT 25 ppm, 1st inoculation 48 h): 5 (>45 viable microorganisms Severely contaminated)
- streak plate rating ([7]; Set Two, ZPT 25 ppm, 1st inoculation 72 h): 5 (>45 viable microorganisms Severely contaminated)
- streak plate rating ([7]; Set Two, ZPT 25 ppm, 2nd inoculation 24 h): 5 (>45 viable microorganisms Severely contaminated)
- streak plate rating ([7]; Set Two, ZPT 25 ppm, 2nd inoculation 48 h): 5 (>45 viable microorganisms Severely contaminated)
- streak plate rating ([7]; Set Two, ZPT 25 ppm, 2nd inoculation 72 h): 5 (>45 viable microorganisms Severely contaminated)
- streak plate rating ([7]; Set Two, ZPT 25 ppm, 3rd inoculation 24 h): 5 (>45 viable microorganisms Severely contaminated)
- streak plate rating ([7]; Set Two, ZPT 25 ppm, 3rd inoculation 48 h): 5 (>45 viable microorganisms Severely contaminated)
- streak plate rating ([7]; Set Two, ZPT 25 ppm, 3rd inoculation 72 h): 5 (>45 viable microorganisms Severely contaminated)
- streak plate rating ([7]; Set Two, ZPT 50 ppm, 1st inoculation 24 h): 2 (6-15 viable microorganisms Lightly contaminated)
- streak plate rating ([7]; Set Two, ZPT 50 ppm, 1st inoculation 48 h): 3 (16-30 viable microorganisms Moderately contaminated)
- streak plate rating ([7]; Set Two, ZPT 50 ppm, 1st inoculation 72 h): 3 (16-30 viable microorganisms Moderately contaminated)
- streak plate rating ([7]; Set Two, ZPT 50 ppm, 2nd inoculation 24 h): 4 (31-45 viable microorganisms Heavily contaminated)
- streak plate rating ([7]; Set Two, ZPT 50 ppm, 2nd inoculation 48 h): 5 (>45 viable microorganisms Severely contaminated)
- streak plate rating ([7]; Set Two, ZPT 50 ppm, 2nd inoculation 72 h): 5 (>45 viable microorganisms Severely contaminated)
- streak plate rating ([7]; Set Two, ZPT 50 ppm, 3rd inoculation 24 h): 5 (>45 viable microorganisms Severely contaminated)
- streak plate rating ([7]; Set Two, ZPT 50 ppm, 3rd inoculation 48 h): 5 (>45 viable microorganisms Severely contaminated)
- streak plate rating ([7]; Set Two, ZPT 50 ppm, 3rd inoculation 72 h): 5 (>45 viable microorganisms Severely contaminated)
